In PubChem BioAssay (NCI) one finds TGI data, which are given here for eight compounds.

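Method: 48-hour compound exposure of cells in 96-well plates, five concentrations, linear interpolation of endpoints. The concentration for full growth arrest is given as TGI.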

What all share (assay): growth of human tumour cells (NCI), 48 h
The test system of assay [1] is UACC-62 melanoma.
Assay [2] concerns OVCAR-8 ovarian.
The test system of assay [3] is HS 578T breast.
Assay [4] concerns HT29 colon.
The test system of assay [5] is LOX IMVI melanoma.
The test system of assay [6] is BT-549 breast.
In assay [7] the test system is PC-3 prostate.
Assay [8] deals with TK-10 renal.
In assay [9] the test system is UO-31 renal.
For assay [10], the system named is M14 melanoma.
Assay [11] relates to NCI-H23 lung.
The subject of assay [12] is SR leukemia.
The subject of assay [13] is HCT-15 colon.
Assay [14] relates to SN12C renal.
In assay [15] the test system is SK-MEL-2 melanoma.
Assay [16] concerns RPMI-8226 leukemia.
Assay [17] deals with MDA-N.

As for `COc1ccc(CN=C2Nc3ccncc3S(=O)(=O)N2c2ccccc2)cc1`, the TGI was more than 100 µM in assay [1]; more than 100 µM in assay [2]; more than 100 µM in assay [3]; more than 100 µM in assay [4]; more than 100 µM in assay [5]; 89.4 µM in assay [6]. Moreover, the TGI is more than 100 µM in assay [7]; 59.9 µM in [8]; more than 100 µM in assay [9]; more than 100 µM in [10]; more than 100 µM in [11]; 73.3 µM in [12]. In addition, the TGI in [13] was more than 100 µM; in assay [14], more than 100 µM; in assay [15] it was more than 100 µM; in assay [16], 42.3 µM; in assay [17] it was more than 100 µM.

Turning to `COc1ccc(C2c3cc4c(cc3OC(N3CCOCC3)C2C)OCO4)c(OC)c1` (stereo unspecified), the TGI was 20.9 µM in assay [1]; more than 74.7 µM in [2]; 8.22 µM in [3]; 13.2 µM in assay [4]; 23.8 µM in assay [5]; 87.7 µM in [6]. Besides, the TGI in [7] is more than 100 µM; in assay [8], 69.6 µM; in assay [9], 58.7 µM; in [10], 21.2 µM; in assay [11] it was more than 67.9 µM; in assay [12], more than 68 µM. Besides, the TGI is more than 75.9 µM in assay [13]; 65.9 µM in assay [14]; 21.7 µM in assay [15]; 19.9 µM in [16]; 5.25 µM in assay [17].

As to `C#CCSc1cnc2ccccc2c1Sc1c[nH]c2ccccc2c1=O`, the TGI in assay [1] was 54.1 µM; in [2], more than 100 µM; in assay [3], more than 100 µM; in assay [4] it was more than 100 µM; in assay [5] it was 38.9 µM; in assay [6], more than 100 µM. Also, the TGI is more than 100 µM in assay [7]; more than 100 µM in [8]; 5.99 µM in [9]; more than 100 µM in assay [10]; more than 100 µM in assay [11]; more than 100 µM in assay [12]. In addition, the TGI is more than 100 µM in [13]; 40.7 µM in assay [14]; 53.5 µM in assay [15]; more than 100 µM in [16]; more than 100 µM in [17].

Turning to `Cc1ccc(N2C(=O)CC(=O)N(NC(=O)C(C)Oc3ccccc3C)C2=S)cc1` (stereo unspecified), the TGI in assay [1], in [2], in assay [3], in assay [4], in [5] and in assay [6] was more than 100 µM each time. The TGI in [7], in assay [8], in assay [9], in assay [10], in assay [11] and in [12] was more than 100 µM throughout. The TGI in assay [13], in assay [14], in [15], in assay [16] and in assay [17] was more than 100 µM each time.

Take `CO/N=C1/C(n2[nH]c(=O)n(-c3ccccc3)c2=O)C2C=CC1n1c(=O)n(-c3ccccc3)c(=O)n12` (stereo unspecified): the TGI in [1], in assay [2], in assay [3], in assay [4], in assay [5] and in assay [6] was more than 100 µM in each case. The TGI in assay [7], in assay [8], in assay [9], in [10], in assay [11] and in [12] was more than 100 µM in each case. Further, the TGI in assay [13], in assay [14], in assay [15], in [16] and in [17] was more than 100 µM each time.

`CCOC(=O)C1(Cc2ccccc2)CCN(C(=O)c2ccccc2)C2C1C2(Cl)Cl` (stereo unspecified): the TGI amounted to 27.2 µM in assay [1]; 77.4 µM in [2]; 71.5 µM in [3]; 34.8 µM in assay [4]; 34.5 µM in [5]; 62.2 µM in assay [6]. The TGI in [7] came out at 50.1 µM; in assay [8], 59.8 µM; in assay [9], 58.9 µM; in assay [10], 34.6 µM; in assay [11], 77 µM; in assay [12] it was 69.7 µM. Also, the TGI in assay [13] was more than 100 µM; in assay [14], 32.4 µM; in [15], 31.1 µM; in assay [16], 38.2 µM; in assay [17], 39.6 µM.

`COc1cccc2c1C(=O)c1ccc3cc(CO)cc(O)c3c1C2=O`: the TGI in assay [1] is 1 µM; in [2], 2.22 µM; in assay [3], 9.59 µM; in assay [4], 3.9 µM; in assay [5], 5.96 µM; in [6], 6.31 µM. In addition, the TGI stood at 1.17 µM in [7]; 8.43 µM in assay [8]; 7.32 µM in assay [9]; 1.68 µM in assay [10]; 1.18 µM in [11]; 1.31 µM in assay [12]. In addition, the TGI in assay [13] turned out to be 1.17 µM; in assay [14], 2.86 µM; in [15], 2.99 µM; in [16], 5.1 µM; in assay [17] it was 0.352 µM.

Regarding `OCCCN(CCc1ccc(Cl)c(Cl)c1)CCN1CCCC1`, the TGI in assay [1] was 31.5 µM; in assay [2], more than 100 µM; in assay [3], more than 100 µM; in [4] it was more than 100 µM; in [5] it was more than 100 µM; in assay [6], more than 100 µM. Also, the TGI in [7] was more than 100 µM; in assay [8], more than 100 µM; in assay [9], more than 100 µM; in [10] it was 32.9 µM; in assay [11] it was more than 100 µM; in assay [12] it was more than 100 µM. In addition, the TGI in assay [13] is more than 100 µM; in [14] it was more than 100 µM; in [15], 36.6 µM; in [16], 70.6 µM; in [17], 42.7 µM.
